Series [1] concerns MDA-MB-231 cells. The series can be described thus: MTT cell viability assay, MDA-MB-231 breast cancer cells. It counts as cell-based. The following applies: for IC50: read-out: MDA MB 231 IC50; for Selectivity MDA MB 231: values match MCF-10A IC50 / MDA MB 231 IC50, formula not given. The method, then: (§1) In vitro toxicity of the compounds described herein were tested on two breast cancer cell lines, MDA-MB-231 and BT-474. These cell lines represent triple negative and HER2-positive breast cancers, respectively. BT474 cell and MDA-MB-231 cells were maintained in DMEM media supplemented with 10% v/v FBS. On reaching confluency (1×10^6 cells/mL in a 25 mL flask), 1×10^6 cells were seeded in 25 mL of fresh supplemented media. The cells were incubated under humidified air containing 5% CO2 at 37° C. Cell density was kept below 1×10^6 cells/mL to ensure exponential growth and to avoid differentiation. Cells were only used between passages 5 and 15 to prevent cell differentiation.
(§2) A standard MTT assay was used to determine the cell viability at 48 hr after an artemisinin derivative was added to the culture medium. Cell viability was above 95% for all experiments. The viable cell count was based on trypan blue exclusion from the cells and was performed in a hemocytometer using a light microscope. To 50 μL of cells was added 20 μL of trypan blue 0.4% solution and 30 μL D-Hanks solution was counted. During experiments cells were exposed to drug stock solutions which were made up in 100% DMSO and the final solvent concentration was 1% v/v in each incubation. Each concentration in every experiment was carried out in triplicate.
(§3) BT474 (2000 cells/100 μL) or MDA-MB-231 cells (7500 cells/100 μL) were seeded on a 96 well plate respectively, and incubated for 24 hr at 37° C. The medium was removed, and replaced it with 200 μL of the complete medium containing artemisinin derivatives. The cells were incubated for 48 hr at 37° C., the medium was removed, and replaced it with 100 μL of fresh complete medium. 10 μL of […] MTT stock solution (D-Hanks) was added to each well. After incubating for 3 hr at 37° C., formazan crystals were solubilized in 50 μL of DMSO and absorbance was measured at 570 nm with BIO-RAD model 680 microplate reader. All data were analyzed using Microsoft Excel. IC50 values were determined with Graphpad Prism 5.
A general note: Tetrazolium assays rely on reduction of a dye to a coloured formazan, in cell work by metabolically active cells.

In series [2] the test system is BT474 cells. The experiment in a line: MTT cell viability assay, BT474 breast cancer cells. The following applies: for IC50: read-out: BT474 IC50; for Selectivity BT474: values match MCF-10A IC50 / BT474 IC50, formula not given. It counts as cell-based. The method, then:
as §1, §2, §3

For series [3], the system named is MCF-10A. The experiment in a line: MCF-10A IC50. Type of series: cell-based.
Series [4] concerns NCI 60 cell lines. The following applies: panel of NCI 60 cell lines; cited from earlier work.
The subject of series [5] is PCa cell lines DU 145, PC-3, C4-2, and LNCaP. The experiment in a line: Cytotoxicity against a panel of four PCa cell lines. It counts as cell-based. The note with it: DU 145, PC-3, C4-2, LNCaP. As to the method: The cytotoxicity of artemisinin dimers, dimer-2Py, was evaluated against a panel of four PCa cell lines, DU 145, PC-3, C4-2, and LNCaP.
Where [6] appears, read: Homo sapiens, MDA-MB-231, MTT, 48 hr incubation.
Setting [7] is: Homo sapiens, BT-474, MTT, 48 hr incubation.

Here are results for 10 molecules from patent US9422306B2, “Artemisinin compounds and synthesis and use thereof” (University of Washington Through Its Center for …, priority 2012, dated 2016).

As usually defined, the IC50 is the concentration at which inhibition is half-maximal.

SMILES strings stand for the structures. Where two headings read alike, the source gives them in different places.

With `C[C@H]1[C@@H](CC(COC(=O)CCC(=O)O)C[C@H]2O[C@@H]3O[C@@]4(C)CC[C@H]5[C@H](C)CC[C@@H]([C@H]2C)[C@@]35OO4)O[C@@H]2O[C@@]3(C)CC[C@H]4[C@H](C)CC[C@@H]1[C@@]24OO3` (stereo partly shown) [Artemisinin dimer succinate, reference compound], the IC50 in series [1] (MTT, 48 hr incubation) was 0.24 µM; in series [2] (MTT, 48 hr incubation) it was 0.1 µM; in series [3], 21 µM. Also, the “Selectivity MDA MB 231” value in series [1] was determined as 88. Besides, the “Selectivity BT474” value in series [2] amounted to 210. Besides, the “times more potent than artemisinin monomers such as artesunate” value in series [4] is “up to 500 times”.
In the case of `C[C@H]1[C@H](OC(=O)CCC(=O)O)O[C@@H]2O[C@@]3(C)CC[C@H]4[C@H](C)CC[C@@H]1[C@@]24OO3` [Artesunate, reference compound], the IC50 in series [1] (Homo sapiens, MDA-MB-231, 48 h) is 46 µM; in series [2] (Homo sapiens, BT-474, 48 h), 7.8 µM; in series [3] (Homo sapiens, MCF-10A), 21 µM. Besides, the “Selectivity MDA MB 231” value in series [1] amounted to 0.46. For the same molecule, in series [2], the “Selectivity BT474” value was found to be 2.7.
For the molecule `COC(=O)CNC(=O)C(CC[C@H]1O[C@@H]2OC3(C)CCC4[C@H](C)CCC([C@H]1C)[C@]42OO3)N(CCC[C@H]1O[C@@H]2OC3(C)CCC4[C@H](C)CCC([C@H]1C)[C@]42OO3)C(=O)C(F)(F)F` (stereo partly shown) [Compound 6a], the IC50 in series [1] (setting [6]) is 19 µM; in series [2] (setting [7]), 6.6 µM; in series [3] (Homo sapiens, MCF-10A) it was 4.6 µM. The “Selectivity MDA MB 231” value in series [1] came to 0.24. For the same molecule, in series [2], the “Selectivity BT474” value amounted to 0.70.
For `COC(=O)CNC(=O)C(CC[C@H]1O[C@@H]2OC3(C)CCC4[C@H](C)CCC([C@H]1C)[C@]42OO3)N(CCC[C@H]1O[C@@H]2OC3(C)CCC4[C@H](C)CCC([C@H]1C)[C@]42OO3)C(=O)c1ccccc1` (stereo partly shown) [Compound 6b] the same measures were 11 µM, 0.79 µM, 5 µM, 0.45 and 6.3.
For `COC(=O)CNC(=O)C(CC[C@H]1O[C@@H]2OC3(C)CCC4[C@H](C)CCC([C@H]1C)[C@]42OO3)N(CCC[C@H]1O[C@@H]2OC3(C)CCC4[C@H](C)CCC([C@H]1C)[C@]42OO3)C(=O)c1cccc(OC)c1OC` (stereo partly shown) [Compound 6c] the same measures were 12 µM, 5.8 µM, 5.7 µM, 0.48 and 0.98.
On to `COC(=O)CNC(=O)C(CC[C@H]1O[C@@H]2OC3(C)CCC4[C@H](C)CCC([C@H]1C)[C@]42OO3)N(CCC[C@H]1O[C@@H]2OC3(C)CCC4[C@H](C)CCC([C@H]1C)[C@]42OO3)C(=O)c1ccc(N(C)C)cc1` (stereo partly shown) [Compound 6d], for which the IC50 was found to be 12 µM in series [1] (setting [6]); 0.88 µM in series [2] (setting [7]); 15 µM in series [3] (Homo sapiens, MCF-10A). Moreover, the “Selectivity MDA MB 231” value in series [1] is given as 1.3. Moreover, the “Selectivity BT474” value in series [2] came out at 17.
On to `COC(=O)CNC(=O)C(CC[C@H]1O[C@@H]2OC3(C)CCC4[C@H](C)CCC([C@H]1C)[C@]42OO3)N(CCC[C@H]1O[C@@H]2OC3(C)CCC4[C@H](C)CCC([C@H]1C)[C@]42OO3)C(=O)c1cnccn1` (stereo partly shown) [Compound 6e], for which the IC50 in series [1] (setting [6]) came to 26 µM; in series [2] (setting [7]), 1.7 µM; in series [3] (Homo sapiens, MCF-10A), 25 µM. Also, in series [1], the “Selectivity MDA MB 231” value is reported as 0.96. Moreover, in series [2], the “Selectivity BT474” value came to 15.
As to `COC(=O)CNC(=O)C(CC[C@H]1O[C@@H]2OC3(C)CCC4[C@H](C)CCC([C@H]1C)[C@]42OO3)N(CCC[C@H]1O[C@@H]2OC3(C)CCC4[C@H](C)CCC([C@H]1C)[C@]42OO3)c1ccc([N+](=O)[O-])cc1` (stereo partly shown) [Compound 6f], the 50% inhibitory concentration (IC50) in series [1] (setting [6]) was found to be 1.2 µM; in series [2] (setting [7]) it was 0.096 µM; in series [3] (Homo sapiens, MCF-10A) it was 47 µM. The “times less potent than artemisinin dimer succinate” value in series [1] (MDA-MB-231) is 5 times. For the same molecule, the “Selectivity MDA MB 231” value in series [1] is on record as 39. For the same molecule, the “Selectivity BT474” value in series [2] is listed as 490.
For the molecule `COC(=O)CNC(=O)C(CC[C@H]1O[C@@H]2OC3(C)CCC4[C@H](C)CCC([C@H]1C)[C@]42OO3)N(C(=O)c1ccccc1)C(C)C` (stereo partly shown) [Compound 7], the 50% inhibitory concentration (IC50) in series [1] (setting [6]) is > 100 µM; in series [2] (setting [7]), > 100 µM; in series [3] (Homo sapiens, MCF-10A), > 100 µM.
Consider `C[C@H]1[C@@H](O)O[C@@H]2O[C@@]3(C)CC[C@H]4[C@H](C)CC[C@@H]1[C@@]24OO3` [dihydroartemisinin], for which the cytotoxicity result in series [5] is listed as “negligible activity”.
